System: Bovine cardiac myofibrils
Experiment: In vitro model of dose-dependent myofibril ATPase modulation (AC1.4, pyruvate kinase/lactate dehydrogenase-coupled ATPase assay at pCa25)
Assay type: biochemical
Conditions: concentration at which ATPase activity was 1.4-fold higher than the bottom of the dose curve, mean of a minimum of two independent tests
How it was run: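 Bovine cardiac myofibrils, detergent-treated; 0.25-1.0 mg/ml. Buffer: K-PIPES 12 mM, MgCl2 2 mM, DTT 1 mM, BSA 0.1 mg/ml, pH 6.80, 22° C; Ca2+ set by EGTA/CaCl2. ATP 1 mM, NADH/PEP-coupled, A340. 4-parameter fit; n≥2.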

| Compound | AC1.4 [µM] |
| --- | --- |
| CS(=O)(=O)c1cccc(C(=O)N2C[C@@H](F)C[C@@H]2C(=O)N[C@@H](c2ccc(C(F)(F)F)c(F)c2)C2COC2)c1 [Example 273, (4S)-4-fluoro-N-((R)-(3-fluoro-4-(trifluoromethyl)phenyl)(3-oxetanyl)methyl)-1-(3-(methylsulfonyl)benzoyl)-D-prolinamide] | 0.6841 |
| O=C(NCc1ccc(C(F)(F)F)cc1)[C@H]1CCCN1C(=O)[C@H]1CCCN(S(=O)(=O)N2CC(C(F)F)C2)C1 [Example 274, 1-(((3S)-1-((3-(difluoromethyl)-1-azetidinyl)sulfonyl)-3-piperidinyl)carbonyl)-N-(4-(trifluoromethyl)benzyl)-D-prolinamide] | 0.6977 |
| CCS(=O)(=O)c1cccc(C(=O)N2[C@@H](C(=O)N[C@@H](c3ccc(C(F)(F)F)cc3)C3COC3)C[C@H]3C[C@H]32)c1 [Example 275, (1R,3R,5R)-2-(3-(ethylsulfonyl)benzoyl)-N-((R)-3-oxetanyl(4-(trifluoromethyl)phenyl)methyl)-2-azabicyclo[3.1.0]hexane-3-carboxamide] | 0.6922 |
| N#CC1CN(S(=O)(=O)N2CCC[C@H](C(=O)N3CCC[C@@H]3C(=O)NC3CC(CO)c4ccccc43)C2)C1 (stereo partly drawn) [Example 276, (2R)-1-((S)-1-((3-cyanoazetidin-1-yl)sulfonyl)piperidine-3-carbonyl)-N-(3-(hydroxymethyl)-2,3-dihydro-1H-inden-1-yl)pyrrolidine-2-carboxamide] | 0.7014 |
| CS(=O)(=O)N1CCC[C@H](C(=O)N2[C@@H](C(=O)N[C@@H](c3cc(F)c(Cl)cc3F)C3CC3)C[C@H]3C[C@H]32)C1 [Example 277, (1R,3R,5R)-N-((R)-(4-chloro-2,5-difluorophenyl)(cyclopropyl)methyl)-2-(((3S)-1-(methylsulfonyl)-3-piperidinyl)carbonyl)-2-azabicyclo[3.1.0]hexane-3-carboxamide] | 0.7027 |
| CS(=O)(=O)c1cccc(C(=O)N2[C@@H](C(=O)N[C@@H](c3cc(F)c(Cl)c(F)c3)C3CC3)C[C@H]3C[C@H]32)c1 [Example 278, (1R,3R,5R)-N-((R)-(4-chloro-3,5-difluorophenyl)(cyclopropyl)methyl)-2-(3-(methylsulfonyl)benzoyl)-2-azabicyclo[3.1.0]hexane-3-carboxamide] | 0.7012 |
| NS(=O)(=O)c1cccc(C(=O)N2C[C@@H](F)C[C@@H]2C(=O)N[C@@H](c2cc(F)c(Cl)cc2F)C2CC2)c1 [Example 280, (4S)-N-((R)-(4-chloro-2,5-difluorophenyl)(cyclopropyl)methyl)-4-fluoro-1-(3-sulfamoylbenzoyl)-D-prolinamide] | 0.713 |
| O=C(N[C@@H](c1ccc(C(F)(F)F)cc1F)C1CC1)[C@H]1CCCN1C(=O)c1cccc(S(=O)(=O)CC(F)(F)F)c1 [Example 281, N-((R)-cyclopropyl(2-fluoro-4-(trifluoromethyl)phenyl)methyl)-1-(3-((2,2,2-trifluoroethyl)sulfonyl)benzoyl)-D-prolinamide] | 0.7104 |
| O=C(N[C@@H](c1cc(F)c(Cl)cc1F)C1COC1)[C@H]1C[C@H]2C[C@H]2N1C(=O)c1cncc(C(F)(F)F)c1 [Example 282, (1R,3R,5R)-N-((R)-(4-chloro-2,5-difluorophenyl)(3-oxetanyl)methyl)-2-((5-(trifluoromethyl)-3-pyridinyl)carbonyl)-2-azabicyclo[3.1.0]hexane-3-carboxamide] | 0.7195 |
| N#CC1CN(S(=O)(=O)c2cccc(C(=O)N3CCC[C@@H]3C(=O)NCc3ccc(C4CC4)cc3)c2)C1 [Example 283, 1-((3-((3-cyano-1-azetidinyl)sulfonyl)phenyl)carbonyl)-N-(4-cyclopropylbenzyl)-D-prolinamide] | 0.7288 |
| N#CC1CN(S(=O)(=O)N2CCC[C@H](C(=O)N3CCC[C@@H]3C(=O)NCc3ccc(F)cc3Cl)C2)C1 [Example 284, N-(2-chloro-4-fluorobenzyl)-1-(((3S)-1-((3-cyano-1-azetidinyl)sulfonyl)-3-piperidinyl)carbonyl)-D-prolinamide] | 0.7331 |
| Cc1ccc([C@@H](C)NC(=O)[C@H]2CCCN2C(=O)[C@H]2CCCN(S(=O)(=O)N3CC(C#N)C3)C2)cc1 [Example 285, 1-(((3S)-1-((3-cyano-1-azetidinyl)sulfonyl)-3-piperidinyl)carbonyl)-N-((1R)-1-(4-methylphenyl)ethyl)-D-prolinamide] | 0.7351 |
| CS(=O)(=O)N1CC(F)(c2cccc(C(=O)N3CCC[C@@H]3C(=O)N[C@@H](c3ccc(C(F)(F)F)cc3F)C3CC3)c2)C1 [Example 286, N-((R)-cyclopropyl(2-fluoro-4-(trifluoromethyl)phenyl)methyl)-1-(3-(3-fluoro-1-(methylsulfonyl)-3-azetidinyl)benzoyl)-D-prolinamide] | 0.7437 |
| Cc1c(F)cccc1CNC(=O)[C@H]1CCCN1C(=O)[C@H]1CCCN(S(=O)(=O)N2CC(C#N)C2)C1 [Example 288] | 0.7452 |
| O=C(N[C@@H](c1cc(F)c(C(F)(F)F)cc1F)C1CC1)[C@H]1C[C@H]2C[C@H]2N1C(=O)c1cc(C(F)(F)F)ccn1 [Example 289, (1R,3R,5R)-N-((R)-cyclopropyl(2,5-difluoro-4-(trifluoromethyl)phenyl)methyl)-2-((4-(trifluoromethyl)-2-pyridinyl)carbonyl)-2-azabicyclo[3.1.0]hexane-3-carboxamide] | 0.7506 |
| N#CC1CN(S(=O)(=O)N2CCN[C@H](C(=O)N3CCC[C@@H]3C(=O)NCc3ccc(Cl)cc3F)C2)C1 [Example 290, N-(4-chloro-2-fluorobenzyl)-1-(((2S)-4-((3-cyano-1-azetidinyl)sulfonyl)-2-piperazinyl)carbonyl)-D-prolinamide] | 0.7542 |
| C[C@@H](NC(=O)[C@H]1CCCN1C(=O)[C@@H]1CN(S(=O)(=O)N2CC(C#N)C2)CCO1)c1ccc(Cl)cc1 [Example 291, N-((1R)-1-(4-chlorophenyl)ethyl)-1-(((2S)-4-((3-cyano-1-azetidinyl)sulfonyl)-2-morpholinyl)carbonyl)-D-prolinamide] | 0.756 |
| CS(=O)(=O)c1cncc(C(=O)N2CCCC[C@@H]2C(=O)N[C@@H](c2cc(F)c(Cl)cc2F)C2CC2)c1 [Example 292, (2R)-N-((R)-(4-chloro-2,5-difluorophenyl)(cyclopropyl)methyl)-1-((5-(methylsulfonyl)-3-pyridinyl)carbonyl)-2-piperidinecarboxamide] | 0.7577 |
| CC[C@H](NC(=O)[C@H]1CCCN1C(=O)[C@H]1CCCN(S(=O)(=O)N2CC(C#N)C2)C1)c1ccc(C(F)(F)F)cc1F [Example 293, 1-(((3S)-1-((3-cyano-1-azetidinyl)sulfonyl)-3-piperidinyl)carbonyl)-N-((1S)-1-(2-fluoro-4-(trifluoromethyl)phenyl)propyl)-D-prolinamide] | 0.7603 |
| O=C(N[C@@H](c1cc(F)c(Cl)cc1F)C1CC1)[C@H]1C[C@H]2C[C@H]2N1C(=O)c1ccnc(S(=O)(=O)C2CC2)c1 [Example 295, (1R,3R,5R)-N-((R)-(4-chloro-2,5-difluorophenyl)(cyclopropyl)methyl)-2-((2-(cyclopropylsulfonyl)-4-pyridinyl)carbonyl)-2-azabicyclo[3.1.0]hexane-3-carboxamide] | 0.7671 |
| O=C(NCc1ccc(C(F)(F)F)cc1F)[C@H]1CCCN1C(=O)[C@H]1CCCN(S(=O)(=O)N2CC(O)(C(F)F)C2)C1 [Example 296, 1-(((3S)-1-((3-(difluoromethyl)-3-hydroxy-1-azetidinyl)sulfonyl)-3-piperidinyl)carbonyl)-N-(2-fluoro-4-(trifluoromethyl)benzyl)-D-prolinamide] | 0.7679 |
| N#CC1CN(S(=O)(=O)N2CCC[C@H](C(=O)N3CCC[C@@H]3C(=O)NCc3ccc(F)c(C(F)(F)F)c3)C2)C1 [Example 297, 1-(((3S)-1-((3-cyano-1-azetidinyl)sulfonyl)-3-piperidinyl)carbonyl)-N-(4-fluoro-3-(trifluoromethyl)benzyl)-D-prolinamide] | 0.7685 |
| CC(NC(=O)[C@@H](C)N(C)C(=O)c1cccc(S(=O)(=O)N2CC(C#N)C2)c1)c1ccc(Cl)cc1 (stereo partly drawn) [Example 298, N-((2R)-1-((1-(4-chlorophenyl)ethyl)amino)-1-oxopropan-2-yl)-3-((3-cyanoazetidin-1-yl)sulfonyl)-N-methylbenzamide] | 0.7905 |
| C[C@H](C(=O)N[C@H](C)c1ccc(C(F)(F)F)cc1F)N(C)C(=O)[C@@H]1CN(S(=O)(=O)N2CC(C#N)C2)CCO1 [Example 299, (2S)-4-((3-cyano-1-azetidinyl)sulfonyl)-N-((2R)-1-(((1R)-1-(2-fluoro-4-(trifluoromethyl)phenyl)ethyl)amino)-1-oxo-2-propanyl)-N-methyl-2-morpholinecarboxamide] | 0.7923 |
| CS(=O)(=O)c1cccc(C(=O)N2CCCC[C@@H]2C(=O)N[C@@H](c2ccc(C(F)(F)F)c(F)c2)C2CC2)c1 [Example 300, (2R)-N-((R)-cyclopropyl(3-fluoro-4-(trifluoromethyl)phenyl)methyl)-1-(3-(methylsulfonyl)benzoyl)-2-piperidinecarboxamide] | 0.7928 |
| O=C(NCc1ccc(C(F)(F)F)cc1)[C@H]1CCCN1C(=O)[C@H]1CCCN(S(=O)(=O)N2CCC2c2ccccc2F)C1 (stereo partly drawn) [Example 302, (2R)-1-((3S)-1-((2-(2-fluorophenyl)azetidin-1-yl)sulfonyl)piperidine-3-carbonyl)-N-(4-(trifluoromethyl)benzyl)pyrrolidine-2-carboxamide] | 0.7944 |
| CN(C)S(=O)(=O)c1cccc(C(=O)N2CCC[C@@H]2C(=O)NCc2ccc(Cl)c(F)c2)c1 [Example 303, N-(4-chloro-3-fluorobenzyl)-1-(3-(dimethylsulfamoyl)benzoyl)-D-prolinamide] | 0.7956 |
